{"source": "paper PMC9748837", "about": "(Chemico-Biological Interactions, 2021)", "key": {"[1]": {"molecular_target": "T1, OATP2B1 (Homo sapiens, UniProt O94956)", "T1 sequence (O94956 1-709)": "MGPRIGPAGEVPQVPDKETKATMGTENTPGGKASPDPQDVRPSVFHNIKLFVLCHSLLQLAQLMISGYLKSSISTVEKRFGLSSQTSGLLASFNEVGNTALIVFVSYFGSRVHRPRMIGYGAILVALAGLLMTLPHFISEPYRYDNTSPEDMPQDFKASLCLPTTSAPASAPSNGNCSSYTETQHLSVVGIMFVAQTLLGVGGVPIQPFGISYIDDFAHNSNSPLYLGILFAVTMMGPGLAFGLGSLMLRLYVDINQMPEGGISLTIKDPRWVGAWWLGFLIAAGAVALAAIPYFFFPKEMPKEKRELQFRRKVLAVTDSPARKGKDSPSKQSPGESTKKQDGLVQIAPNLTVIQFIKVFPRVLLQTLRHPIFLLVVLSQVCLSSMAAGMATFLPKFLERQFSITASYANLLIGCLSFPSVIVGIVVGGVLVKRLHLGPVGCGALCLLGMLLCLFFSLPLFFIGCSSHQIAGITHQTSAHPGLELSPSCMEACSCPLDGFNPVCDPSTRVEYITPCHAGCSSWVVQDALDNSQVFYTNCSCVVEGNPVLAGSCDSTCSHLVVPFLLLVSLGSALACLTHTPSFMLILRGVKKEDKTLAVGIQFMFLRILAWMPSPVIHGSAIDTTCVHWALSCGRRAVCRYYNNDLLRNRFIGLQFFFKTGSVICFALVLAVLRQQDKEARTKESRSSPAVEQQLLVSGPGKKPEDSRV", "assay_type": "cell-based"}, "[2]": {"molecular_target": "T2, OATP1B1 (Homo sapiens, UniProt Q9Y6L6)", "T2 sequence (Q9Y6L6 1-691)": "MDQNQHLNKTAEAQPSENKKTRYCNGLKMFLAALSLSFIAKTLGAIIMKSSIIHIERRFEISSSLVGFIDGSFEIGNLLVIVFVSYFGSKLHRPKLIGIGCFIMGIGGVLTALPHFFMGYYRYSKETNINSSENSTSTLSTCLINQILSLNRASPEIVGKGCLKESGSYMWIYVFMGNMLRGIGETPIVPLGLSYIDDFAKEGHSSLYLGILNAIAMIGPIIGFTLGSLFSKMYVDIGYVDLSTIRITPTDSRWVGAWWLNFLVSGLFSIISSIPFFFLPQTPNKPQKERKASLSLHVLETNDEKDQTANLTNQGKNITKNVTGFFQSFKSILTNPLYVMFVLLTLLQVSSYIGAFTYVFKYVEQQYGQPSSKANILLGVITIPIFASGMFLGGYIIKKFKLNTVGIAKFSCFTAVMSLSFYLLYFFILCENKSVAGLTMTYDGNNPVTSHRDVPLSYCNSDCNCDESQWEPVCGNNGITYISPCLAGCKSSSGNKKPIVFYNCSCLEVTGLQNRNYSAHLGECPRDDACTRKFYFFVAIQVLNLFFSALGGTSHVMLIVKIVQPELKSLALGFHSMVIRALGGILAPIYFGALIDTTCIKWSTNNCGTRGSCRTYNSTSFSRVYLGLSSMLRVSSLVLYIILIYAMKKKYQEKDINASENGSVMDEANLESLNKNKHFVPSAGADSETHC", "assay_type": "cell-based", "conditions": "hek-oatp1b1 cells"}}}
{"compound": "N=C(N)Nc1ccc(C(=O)Oc2ccc(CC(=O)O)cc2)cc1", "note": "[GBPA, 4-(4-guanidinobenzoyloxy)phenylacetic acid]", "values": [{"measurement": "IC50", "setting": "[1]", "value": "11.1 ± 3.3", "unit": "µM"}, {"measurement": "inhibition at 100 µM", "setting": "[2]", "value": "~50", "unit": "%"}]}
